Reference: US8536187B2 (Gilead Sciences, Inc., priority 2008, dated 2013)

Experiments:
[1] = CC50 assay (CellTiter-Glo) in Huh-7 HCV replicon cells; type: cell-based; conditions: human
How it was run: (§1)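 Huh-7 cells carrying HCV replicon (6000/well) incubated with serially diluted compound, 0.5% DMSO final, 3 days at 37° C, 5% CO2. EC50 from luciferase luminescence after 30 min lysis/substrate at room temperature; CC50 from CellTiter-Glo luminescence after 10 min at room temperature.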

[2] = system: HCV replicon in human hepatoma Huh-7 cell line; assay: Anti-HCV replicon assay, EC50 (luciferase luminescence); type: cell-based; conditions: Hepatitis C virus, Huh-7, 72 h
How it was run: as §1

SMILES: C[C@H](Cn1cncn1)Nc1nc(NCC(F)(F)F)c2nc(-c3ccc(OC(F)F)c(S(C)(=O)=O)c3)ccc2n1 [Example 206, N^2-((R)-1-(1H-1,2,4-triazol-1-yl)propan-2-yl)-6-(4-(difluoromethoxy)-3-(methylsulfonyl)phenyl)-N^4-(2,2,2-trifluoroethyl) pyrido[3,2-d]pyrimidine-2,4-diamine]
- CC50 at 3 days ([1]; Table 2, 3 days incubation): > 10 µM
- EC50 [2]: 0.25 to 2 µM

SMILES: C[C@@H](Nc1nc(NCC(F)(F)F)c2nc(C#CC(C)(C)C)ccc2n1)c1ccc(S(N)(=O)=O)cc1 [Example 285, (R)-4-(1-(6-(3,3-dimethylbut-1-ynyl)-4-(2,2,2-trifluoroethyl-amino)pyrido[3,2-d]pyrimidin-2-ylamino)ethyl)benzene-sulfonamide]
- CC50 at 3 days ([1]; Table 2, 3 days incubation): > 10 µM
- EC50 [2]: 0.25 to 2 µM

SMILES: NS(=O)(=O)c1ccc(CNc2nc(NCC(F)(F)F)c3nc(C#CC4CC4)ccc3n2)cc1 [Example 279, 4-((6-(2-cyclopropylethynyl)-4-(2,2,2-trifluoroethylamino)pyrido[3,2-d]pyrimidin-2-ylamino)methyl)benzene-sulfonamide]
- CC50 at 3 days ([1]; Table 2, 3 days incubation): > 10 µM
- EC50 [2]: 0.1 to 0.25 µM

SMILES: NS(=O)(=O)c1cc(CNc2nc(NCC(F)(F)F)c3nc(-c4ccc(F)cc4)ccc3n2)cc(C(F)(F)F)c1 [Example 8, 3-{[6-(4-Fluoro-phenyl)-4-(2,2,2-trifluoro-ethylamino)-pyrido[3,2-d]pyrimidin-2-ylamino]-methyl}-5-trifluoromethyl-benzenesulfonamide]
- CC50 at 3 days ([1]; Table 1, 3 days incubation): > 25 µM
- EC50 [2]: 0.25 to 2 µM

SMILES: C[C@@H](Nc1nc(O[C@@H]2C[C@@H]3C[C@@H]3C2)c2nc(C#CC3CC3)ccc2n1)c1ccc(S(N)(=O)=O)cc1 [Example 299, 4-((R)-1-(4-((1S,3r,5R)-bicyclo [3.1.0]hexan-3-yloxy)-6-(2-cyclopropylethynyl)pyrido [3,2-d]pyrimidin-2-ylamino)ethyl)benzenesulfonamide]
- CC50 at 3 days ([1]; Table 2, 3 days incubation): 1 to 10 µM
- EC50 [2]: < 0.1 µM

SMILES: CCC(=O)NS(=O)(=O)c1ccc(CNc2nc(NCC(F)(F)F)c3nc(-c4ccc(OC)c(S(C)(=O)=O)c4)ccc3n2)cc1 [Example 142, N-(4-((6-(4-methoxy-3-(methylsulfonyl)phenyl)-4-(2,2,2-trifluoroethylamino)pyrido[3,2-d]pyrimidin-2-ylamino)methyl)phenylsulfonyl) propionamide]
- CC50 at 3 days ([1]; Table 2, 3 days incubation): > 10 µM
- EC50 [2]: 0.25 to 2 µM

SMILES: CC#Cc1ccc2nc(N[C@H](C)c3ccc(S(N)(=O)=O)cc3)nc(OC3CC3)c2n1 [Example 309, (R)-4-(1-(4-cyclopropoxy-6-(prop-1-ynyl)pyrido[3,2-d]pyrimidin-2-ylamino)ethyl) benzenesulfonamide]
- CC50 at 3 days ([1]; Table 2, 3 days incubation): > 10 µM
- EC50 [2]: < 0.1 µM

SMILES: CCOc1ccc(-c2ccc3nc(NCc4ccc(-n5cncn5)cc4)nc(NC4(C(F)(F)F)CC4)c3n2)cn1 [Example 52, N^2-(4-(1H-1,2,4-triazol-1-yl)benzyl)-6-(6-ethoxypyridin-3-yl)-N^4-(1-(trifluoromethyl)cyclopropyl)pyrido[3,2-d] pyrimidine-2,4-diamine]
- CC50 at 3 days ([1]; Table 2, 3 days incubation): 1 to 10 µM
- EC50 [2]: < 0.1 µM

SMILES: CS(=O)(=O)c1cc(-c2ccc3nc(NCc4cccnc4)nc(NCC(F)(F)F)c3n2)ccc1OC(F)F [Example 178, 6-(4-(difluoromethoxy)-3-(methylsulfonyl)phenyl)-N^2-(pyridin-3-ylmethyl)-N^4-(2,2,2-trifluoroethyl)pyrido [3,2-d]pyrimidine-2,4-diamine]
- CC50 at 3 days ([1]; Table 2, 3 days incubation): 1 to 10 µM
- EC50 [2]: < 0.1 µM

SMILES: Nc1ccc(-c2ccc3nc(NCc4cccc(-n5cncn5)c4)nc(NC4(C(F)(F)F)CC4)c3n2)cn1 [Example 73, N^2-(3-(1H-1,2,4-triazol-1-yl)benzyl)-6-(6-aminopyridin-3-yl)-N^4-(1-(trifluoromethyl)cyclopropyl)pyrido[3,2-d] pyrimidine-2,4-diamine]
- CC50 at 3 days ([1]; Table 2, 3 days incubation): 1 to 10 µM
- EC50 [2]: < 0.1 µM

SMILES: CS(=O)(=O)c1cccc(-c2ccc3nc(NCc4ccc(S(N)(=O)=O)cc4)nc(OC4CC4)c3n2)c1 [Example 22, 4-{[4-Cyclopropoxy-6-(3-methanesulfonyl-phenyl)-pyrido[3,2-d]pyrimidin-2-ylamino]-methyl}-benzenesulfonamide]
- CC50 at 3 days ([1]; Table 1, 3 days incubation): > 25 µM
- EC50 [2]: < 0.1 µM
